Activity calls are given as the source filed them.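 How the source made its calls: active means compounds giving half or more protection of infected cells from virus-caused growth loss, again on retest; inactive means the rest.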
Tested on: CEM cells HIV-1 protection, formazan growth assay
Assay: NCI AIDS Antiviral Assay
Settings: for IC50: measured here: growth of uninfected CEM cells
Procedure, shortened: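 Human CEM cells, uninfected and HIV-1-infected, exposed to five drug concentrations; growth measured by soluble formazan assay and scored as percent protection from infection, with protecting compounds retested.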

In the case of `CCOC(=O)C(NC(=O)c1ccccc1)(Nc1ccc(Cl)cc1C(F)(F)F)C(F)(F)F` (configuration not stated), the EC50 is reported as greater than 200 µM and the IC50 is reported as 3.55 µM.
`O=C(O)c1ccc2[nH]c(=O)oc2c1` showed an EC50 greater than 200 µM and an IC50 greater than 200 µM.
Work on `Cc1ccc(-c2c3c(n(C4OC(CO)C(O)C(O)C4O)c(=S)c2C#N)CC(C)(C)CC3=O)cc1` (configuration not stated) yielded an EC50 greater than 200 µM and an IC50 of 97.7 µM.
`CCOC(=O)NC(=S)NN(C)C1=NCC(C)(C)S1` gave an EC50 greater than 200 µM and an IC50 greater than 200 µM.
`CN(C)CCn1c2c3ccccc3ccc2c2oc(=O)c3ccccc3c21` was tested, and the EC50 was greater than 18.2 µM and the IC50 was 8.51 µM.
`Cc1ccc(S(=O)(=O)ON/N=C2/C3OC3[C@@H]3CCCC[C@H]23)cc1` (some centres not stated) was tested, and the EC50 was greater than 389 µM and the IC50 was 195 µM.
`CCN(CC)C(=S)N/N=C(/c1ccccc1)c1ccccn1` gave an EC50 greater than 200 µM and an IC50 of 1.51 µM.
Work on `C[n+]1c(-c2ccc(/C=N/Nc3ccnc(N/N=C/c4ccc(-c5cn6ccccc6[n+]5C)cc4)n3)cc2)cn2ccccc21` yielded an EC50 of 4.68 µM and an IC50 of 9.77 µM.
With `C=CCN(CC=C)CC(C(C)=O)C(c1ccccc1)c1c(O)c2ccccc2oc1=O` (configuration not stated) the EC50 was greater than 1.15 µM and the IC50 was greater than 1.15 µM.
For `COC1OC2COC(c3ccccc3)OC2C(S)C1S` (configuration not stated), the EC50 was greater than 200 µM and the IC50 was 102 µM.
With `CC1(C(=O)NCCN(CCNC(=O)C2(C)CC3(C)CC(C)(C2)C(=O)NC3=O)CCNC(=O)C2(C)CC3(C)CC(C)(C2)C(=O)NC3=O)CC2(C)CC(C)(C1)C(=O)NC2=O` (configuration not stated) the outcome was “inactive”.
Molecule `O=C(C(c1ccccc1)c1ccccc1)C(O)(c1ccccc1)c1ccccc1` has an EC50 of 30.9 µM and an IC50 of 34.7 µM.
`Ic1ccc(SSc2ccc(I)cc2)cc1` showed an EC50 greater than 200 µM and an IC50 of 6.61 µM.
With `O=C(CSC(=S)N1CCCCC1)Nc1nc2c(s1)CCCC2` the EC50 was greater than 38 µM and the IC50 was greater than 38 µM.
Molecule `COc1ccc(-c2cc(-c3ccco3)c(C#N)c(=S)n2C2OC(COC(C)=O)C(OC(C)=O)C(OC(C)=O)C2OC(C)=O)cc1` (configuration not stated) has an EC50 of 123 µM and an IC50 of 145 µM.
`S=c1c2ccccc2c(=S)n2n1CC=CC2` was tested, and the outcome was “inactive”.
With `NC(=O)N/N=C(\C(=O)C(=O)Nc1ccc(Cl)c(C(F)(F)F)c1)c1nc2ccc(C(=O)c3ccccc3)cc2[nH]c1=O` the EC50 was greater than 61.7 µM and the IC50 was greater than 61.7 µM.
`CC[C@@]1(O)C(=O)OCc2c1cc1n(c2=O)Cc2cc3cc(O)ccc3nc2-1` was tested, and the EC50 was greater than 37.2 µM and the IC50 was 0.00832 µM.
Work on `c1ccc2c3csccc-3nc2c1` yielded an EC50 greater than 200 µM and an IC50 of 97.7 µM.
`COC(=O)C(C)(C)NC(=O)C(Cc1ccccc1)Nc1ncnc2c1ncn2-c1ccc(OC)cc1` (configuration not stated) was tested, and the outcome was “inactive” and the IC50 was 56.2 µM.
`COc1cc(NS(=O)(=O)c2ccc(C)cc2)c2nccnc2c1` gave an EC50 greater than 204 µM and an IC50 of 77.6 µM.
Molecule `COC(=O)[C@@H]1CN(C(=O)c2ccccc2)C(=O)N1` has an EC50 greater than 200 µM and an IC50 greater than 200 µM.
Work on `COc1ccc(N2C(=O)/C(=C\c3cccc(Oc4ccccc4)c3)SC2c2ccccc2)cc1` (configuration not stated) yielded an EC50 greater than 200 µM and an IC50 of 8.51 µM.
For `CC1(C)C(C#N)=[N+]([O-])C(C)(C)N1O`, the EC50 was greater than 200 µM and the IC50 was 123 µM.
In the case of `O=S(=O)(O)c1ccc2c(c1)Sc1cc(S(=O)(=O)O)ccc1O2`, the outcome is reported as “inactive”.
In the case of `CSc1nc(N)cc(C(F)(F)F)n1`, the EC50 is reported as greater than 200 µM and the IC50 is reported as greater than 200 µM.
With `OCc1ccccc1C1CSCSC1` the EC50 was greater than 219 µM and the IC50 was greater than 219 µM.
`O=C(Cn1ccnc1[N+](=O)[O-])c1ccc(F)cc1` showed an EC50 greater than 724 µM and an IC50 of 339 µM.
In the case of `CCOC(=O)c1c(N)sc2c1C(C)(C(=O)OCC)CC2` (configuration not stated), the EC50 is reported as greater than 200 µM and the IC50 is reported as 141 µM.
`CCOC(=O)c1cnc2[nH]c(=O)c3ccccc3n2c1=O` was tested, and the outcome was “inactive”.
In the case of `Cc1c(N)nc(C2CC(=O)N2CC(N)C(N)=O)nc1C(=O)NC(C(=O)NC(C)C(O)C(C)C(=O)NC(C(=O)NCCc1nc(-c2nc(C(=O)NCCNCC(C)O)cs2)cs1)C(C)O)C(OC1OC(CO)C(O)C(O)C1OC1OC(CO)C(O)C(OC(N)=O)C1O)c1cnc[nH]1` (configuration not stated), the outcome is reported as “inactive”.
Molecule `O=C(O)c1sccc1Cc1ccsc1` has an EC50 greater than 200 µM and an IC50 greater than 200 µM.
`CCCCCCCOc1ccc(/C=C\c2cc[n+](CCCCCCCC[n+]3ccc(/C=C\c4ccc(OCCCCCCC)cc4)cc3)cc2)cc1` showed an EC50 greater than 6.46 µM and an IC50 greater than 6.46 µM.
For `Cc1cc2c(c3nocc13)C(=O)c1ccccc1C2=O`, the outcome was “inactive”.
`CC(CCC(=O)O)[C@H]1CCC2[C@@H]3CC(O)[C@@H]4CC(O)CC[C@]4(C)C3CC[C@@]21C` (some centres not stated) gave an EC50 greater than 200 µM and an IC50 of 72.4 µM.
Work on `CC(C)CCCC(C)[C@H]1CC[C@@H]2[C@H]3CC[C@H]4C[C@@H](CCC=C(c5cc(Cl)c(OCc6cccc([N+](=O)[O-])c6)c(C(=O)OCc6cccc([N+](=O)[O-])c6)c5)c5cc(Cl)c(OCc6cccc([N+](=O)[O-])c6)c(C(=O)OCc6cccc([N+](=O)[O-])c6)c5)CC[C@]4(C)[C@@H]3CC[C@]12C` (some centres not stated) yielded an EC50 greater than 100 µM and an IC50 greater than 100 µM.
`CCCCC1=NNC(=O)C1` gave an EC50 greater than 200 µM and an IC50 greater than 200 µM.
`O=S(=O)(NCCSSCCNS(=O)(=O)c1ccc2ccccc2c1)c1ccc2ccccc2c1` gave an EC50 greater than 200 µM and an IC50 of 64.6 µM.
For `COc1ccc(C2c3cc(OC)c(OC)cc3CC3C(=O)OCC32)cc1OC` (configuration not stated), the EC50 was greater than 200 µM and the IC50 was greater than 200 µM.
Molecule `C[Si]1(C)[Si](C)(C)[Si](C)(C)[Si](C)(C)[Si](C)(C)[Si]1(C)C` has an EC50 greater than 28.8 µM and an IC50 greater than 28.8 µM.
Work on `O=C1CCS(=O)(=O)O1` yielded an EC50 greater than 1820 µM and an IC50 greater than 1820 µM.
With `CC(=O)[O-].N.N.N.N.N.[Co+3].[O-][Cl+3]([O-])([O-])[O-]` the outcome was “inactive”.

Source: PubChem BioAssay AID179 (DTP/NCI, 2004)
